Entries after “also recorded” stand apart in the source; their conditions may differ.

The values below come from US20240390382A1, “METHOD FOR TREATING CANCER” (THE CHILDREN'S MEDICAL CENTER CORPORATION, priority 2021, published 2024).

One test deals with CTR9 edited CD34+HSPCs. The test is described as follows: HSC phenotyping (flow cytometry) of CTR9 edited CD34+ HSPCs, chemical rescue experiment. Particulars: inhibitor used at the concentration of IC50, vs DMSO. Type of test: cell-based, human. As for the experimental part: (§1) HEK293T cells are cultured in DMEM supplemented with 10% FBS and 1× penicillin/streptomycin. Human CD34 HSPCs were purchased from Fred Hutchinson Cancer Institute and cultured in StemSpan serum free culture medium (StemCell Technologies) supplemented with 1×CC100, 2 mM L-glutamine, 100 ng/mL TPO, 1×UM171 and 1× penicillin/streptomycin. For RNP based CRISPR editing of CD34+HSPCs, chemically synthesized gRNA and Cas9 protein were mixed and set at room temperature for 10 mins to allow the formation of deliverable RNP. The assembled RNP complexes were then delivered into CD34+HSPCs by Lonza 4D Nucleofector with program DZ-100. 48-72 hrs after nucleofection, cells were harvested for genomic DNA and the edited region was PCR amplified and the editing efficiency was analyzed by the ICE analysis from Synthego. Edited CD34+HSPCs were allowed to expand in the culture medium and harvested twice at day 3 and day 6 post-nucleofection. Harvested cells were washed in cold PBS and stained by HSC phenotyping antibody cocktail, which is composed of Brilliant Violet 421 anti-CD34, APC-H7 anti-CD45RA, PE-Cy7 anti-CD90, BB700 anti-CD133, PE anti-EPCR and APC anti-ITGA3 in ice cold FACS buffer (PBS+2% FBS) at 1:60 for 30 minutes in ice. Stained cells were then analyzed by BD LSRII flow cytometer. For the chemical rescue experiment, CDK9 inhibitors (LDCO000067 and AZD4573) and the YEATS domain inhibitor of ENL/ILLT3 (SR-0813) were used at the concentration of IC50.
A general note: In flow cytometry, cells or beads pass a laser one at a time.

The subject of test [1] is key leading edge genes (MLLT3 regulated) in CTR9 edited cells. The test is described as follows: qRT-PCR analysis of key leading edge genes in CTR9 edited cells. Format: cell-based, human. Particulars: two independent guides, inhibitor at the concentration of IC50, vs DMSO. As for the experimental part:
as §1, with “For the chemical rescue experiment, CDK9 inhibitors (LDCO000067 and AZD4573) and the YEATS domain inhibitor of ENL/ILLT3 (SR-0813) were used at the concentration of IC50.” left out
RNA from HSPCs was harvested by Qiagen RNeasy kit and quantified by nanodrop. […]
(In general: Quantitative PCR measures a nucleic acid by following its amplification.)

Consider `O=C(NC1CCC1)c1ccc2nc(-c3cccc(NS(=O)(=O)NCCN4CCCCC4)c3)cn2c1` [SR-0813], for which, in the test with CTR9 edited CD34+HSPCs (CTR9 edited CD34+ HSPCs), the “CTR9-perturbation-mediated HSC expansion (partial loss of CTR9)” value is recorded as “rescues HSC expansion phenotype; also recorded: completely suppressed”. In addition, in the test on CTR9 edited CD34+HSPCs (primary human HSPCs), the “impact on the bulk HSPC population (CD34+CD45RA-)” value is recorded as “without a major impact on the bulk HSPC population”; the “phenotypic LT- and ST-HSC expansion” value is “suppression of phenotypic LT- and ST-HSC expansion occurred”. The “expression of key upregulated target genes (leading edge genes)” value in test [1] is recorded as “downregulated many of the key upregulated target genes”.
